# Results: ChEMBL document CHEMBL2203274, “Desmethyl Macrolides: Synthesis and Evaluation of 4,8-Didesmethyl Telithromycin” (2012)
# What was measured:
# Format in all cases: functional
# Staphylococcus aureus [1] = assay: Antibacterial activity against Staphylococcus aureus UCN14 harboring ribosomal A2058T mutant in presence of DMSO
# Staphylococcus aureus [2] = assay: Antibacterial activity against Staphylococcus aureus ATCC 33591 harboring ermA mutant in presence of DMSO
# Escherichia coli [3] = assay: Antibacterial activity against Escherichia coli DK/2058G harboring 23S rRNA A2058G mutant in presence of DMSO
# Escherichia coli [4] = assay: Antibacterial activity against wild type Escherichia coli DK/pKK3535 in presence of DMSO
# Escherichia coli [5] = assay: Antibacterial activity against Escherichia coli SQ171/2058G harboring 23S rRNA A2058G mutant in presence of DMSO
# Staphylococcus aureus [6] = assay: Antibacterial activity against Staphylococcus aureus UCN14 harboring ribosomal A2058T mutant in presence of ethanol
# Staphylococcus aureus [7] = assay: Antibacterial activity against Staphylococcus aureus ATCC 33591 harboring ermA mutant in presence of ethanol
# Escherichia coli [8] = assay: Antibacterial activity against Escherichia coli SQ171/2058G harboring 23S rRNA A2058G mutant in presence of ethanol
# Escherichia coli [9] = assay: Antibacterial activity against Escherichia coli DK/2058G harboring 23S rRNA A2058G mutant in presence of ethanol
# Escherichia coli [10] = assay: Antibacterial activity against wild type Escherichia coli DK/pKK3535 in presence of ethanol
Compound,MIC (Staphylococcus aureus [1]) [µg/mL],MIC (Staphylococcus aureus [2]) [µg/mL],MIC (Escherichia coli [3]) [µg/mL],MIC (Escherichia coli [4]) [µg/mL],MIC (Escherichia coli [5]) [µg/mL],MIC (Staphylococcus aureus [6]) [µg/mL],MIC (Staphylococcus aureus [7]) [µg/mL],MIC (Escherichia coli [8]) [µg/mL],MIC (Escherichia coli [9]) [µg/mL],MIC (Escherichia coli [10]) [µg/mL]
CC[C@H]1OC(=O)[C@H](C)C(=O)C[C@@H](O[C@@H]2O[C@H](C)C[C@H](N(C)C)[C@H]2O)[C@](C)(OC)C[C@@H](C)C(=O)C[C@H]2N(CCCCn3cnc(-c4cccnc4)c3)C(=O)O[C@]12C,> 256,> 128,16,8,> 512,–,–,–,–,–
CC[C@H]1OC(=O)[C@H](C)C(=O)C[C@@H](O[C@@H]2O[C@H](C)C[C@H](N(C)C)[C@H]2O)[C@](C)(OC)CCC(=O)[C@H](C)[C@H]2N(CCCCn3cnc(-c4cccnc4)c3)C(=O)O[C@]12C,> 256,> 64,32,4,> 512,–,–,–,–,–
"CC[C@H]1OC(=O)[C@H](C)C(=O)C[C@@H](O[C@@H]2O[C@H](C)C[C@H](N(C)C)[C@H]2O)[C@@](C)(OC)CCC(=O)C[C@H]2[C@@H]1OC(=O)N2CCCCn1cnc(-c2cccnc2)c1 [4,8,10-TRIDESMETHYL TELITHROMYCIN]",–,–,–,–,–,32,> 128,> 512,64,32
CC[C@H]1OC(=O)[C@H](C)C(=O)[C@H](C)[C@@H](O[C@@H]2O[C@H](C)C[C@H](N(C)C)[C@H]2O)[C@](C)(OC)C[C@@H](C)C(=O)[C@H](C)[C@H]2N(CCCCn3cnc(-c4cccnc4)c3)C(=O)O[C@]12C [TELITHROMYCIN],> 128,> 128,1,0.5,> 512,> 256,> 128,> 512,1,0.5
